# Key:
# [1] = Accelerated oxidation, Rancimat test of Polysorbate 80 coating on silica; format: physicochemical
# Experimental: Solid silica particles (LuctaCarrier™ silica, Lucta, S. A., Barcelona, Spain) are coated 50% wt/wt (based of the combined weight of the particles and coating) with a mixture of polyethylene 20 sorbitan monooleate (Polysorbate 80) and an amount of the antioxidants set forth in the tables, below, or no antioxidant as a control. The solid antioxidants (e.g., BHA or BHT) are dissolved in a suitable solvent (e.g., ethyl alcohol) and then mixed with the Polysorbate 80 at the listed concentration levels. The oxidative stability of the coating is then determined using the Rancimat test. Oxidative stability relates to how easily components of oil oxidize which creates off-flavors in the oil, and is measured by instrumental analysis using accelerated oxidation methods. American Oil Chemists' Society Official Method Cd 12-57 for Fat Stability: Active Oxygen Method (re'vd 1989); Rancimat (Laubli, M. W. and Bruttel, P. A., JOACS 63:792-795 (1986)); Joyner, N. T. and J. E. McIntyre, Oil and Soap (1938) 15:184 (modification of the Schaal oven test). The Rancimat method has been developed as the automated version of the AOM method (active oxygen method) for the determination of the induction time of fats and oils. In this method the highly volatile organic acids produced by autoxidation are absorbed in water and used to indicate the induction time. As used in the following tables, the abbreviations have the following meanings: […]
# [2] = Shelf life test, sensory panel rancidity score at 40° C.; format: physicochemical; settings: 1000 ppm
# Experimental: The nonionic surfactant polyoxyethylene 20 sorbitan monooleate (Polysorbate 80) is coated in an amount of 50% wt/wt onto silica particles (i.e., in the proportion 50 g. of Polysorbate 80 per 50 g. of silica), either without (control) or with added antioxidant. A shelf life test is performed by measuring, using a sensory panel, the level of rancid odor of samples stored at 40° C., with a rancidity score being assigned to each sample (with a score of 0 for no rancid odors and 10 for highest level of rancid odors. The results are shown in Table 13, below.
# rumen cellulase activity = assay: In vitro cellulose degradation by rumen bacterial inoculum; format: biochemical, cows; settings: 0.25% surfactant in reaction mixture; regression on initial 24 hr
# Experimental: A bacterial fraction, largely free of protozoa, was prepared for the fermentation assays by using the procedure of Forsberg, “Some Effects of Arsenic on the Rumen Microflora; An In Vitro Study,” Can. J. Microbiol. 24:36 (1978). The digesta inoculum was resuspended and washed twice in an equivalent amount of 0.1 M phosphate buffer pH 6.8 to the rumen fluid. The inoculum provided both, the substrate and the enzyme used for cellulose degradation assay. Incubation periods were 0, 1.5, 3, 6, 12, 24, and 48 hr. Other incubation conditions were similar to those outlined in experiment 1 above. However, cellulose was determined by the method of Updergraff, supra, for the in vivo digestibility trial. The optimal level of Tween 80 obtained was adopted here and followed.
# [3] = system: rumen microbial proteinases; assay: Protease activity of mixed rumen microbial cell enzyme source (casein substrate); format: biochemical, cows
# Experimental: Two rumen-fistulated, nonlactating cows averaging 623±12.5 kg in weight were fed 5 kg dry matter (DM) of low quality timothy hay twice daily. About 2.5L of rumen fluid was collected through the fistula 4 hrs after the morning feeding at 07:00 hrs. Bulk feed particles were removed by sieving the fluid through a 0.5 mm strain. The fluid was then composited and then stored in a prewarmed (37° C.) thermal container.
# A microbial powder was prepared using the acetone-butanol extraction procedure outlined by Mahadevan et al., “Preparation of protease from mixed rumen microorganisms and its use for the in vitro determination of true protein in feedstuffs,” Can. J. Anim. Sci. 67:55 (1987). About 500 g of this powder was prepared and stored at −20° C. Extraction of the proteases was accomplished by stirring 250 g of the powder with 1L of 4° C. cold water (for 1 hr) and then proceeding along Mahadevan's extraction procedure. Only extracts from the filtration with an XM-300 Amicon Filter, (approx. 300 000 molecular weight cutoff—under nitrogen gas), were made, washed twice with distilled water and the retentate freeze dried. This was referred to as the mixed microbial cell enzyme source. It was used in the protein adhesion tests and also in the parallel thiol and protease activity determinations.
# Ten grams of the mixed microbial cell enzyme was dissolved in 100 ml warm (37° C.) 0.1 M phosphate buffer, pH 6.8, and used as an enzyme inoculant. The assay matrix consisted of 1 ml enzyme source, 1 ml 2% casein solution, 1 ml 01 M phosphate buffer and 1 ml of either the relevant level of surfactant or an equivalent amount of buffer. Ten levels of the two surfactants, polyoxyethylene sorbitan monoleate (Tween 80) and polyoxyethylene sorbitan monastearate (Tween 60) were tested, viz 0, 0.08, 0.16, 0.24, 0.32, 0.4, 0.8, 1.2, 1.6, and, 2.0% surfactant in the assay mixture.
# The protease activity incubations were performed in 50 ml plastic centrifuge tubes, at 37° C. and under a stream of carbon dioxide gas. After 1.5 hr, 1 ml of the assay mixture was removed for the determination of thiols (SH) and disulfides (SS) (Sasago et al., “Determination of sulfhydryl and disulfide groups in milk by p-chloromercuribenzoate-diathizone method,” J. Dairy Sci. 46:1348-1351 (1963)). At the end of 2 hr incubation, the reaction was stopped with 1 ml of 15% TCA (trichloroacetic acid) solution, cooled to 4° C. under an icebath, and centrifuged at 10,000 for 10 min. The free amino acids in the supernatant were assayed using the ninhydrin method (Rosen, “a Modified Colorimetric Analysis For Amino Acids,” Arch. Biochim. Biophys. 67:10 (1957)). The optimal surfactant inclusion level was calculated by direct linear plots on the assumption that the Michaellis-Menten equation applied.
# [4] = Griffin et al., 1972; cited from earlier work
# [5] = direct linear plots, Michaelis-Menten assumed
molecule,measurement,setting,value
"Cc1cc(C(C)(C)C)c(O)c(C(C)(C)C)c1 [BHT, butylated hydroxytoluene]",Rancimat Stability,"[1]; Table 7, 200 ppm in Polysorbate 80 coating on silica",1.75 h
same,Rancimat Stability,"[1]; Table 8, 200 ppm",1.85 h
same,Rancimat Stability,"[1]; Table 9, 200 ppm",4.45 h
same,Rancimat Stability,"[1]; Table 10, 200 ppm",6.15 h
"CCOc1ccc2c(c1)C(C)=CC(C)(C)N2 [EQ, ethoxyquin]",Rancidity Score,"[2]; 1 week, score 0 (no rancid odors) to 10",1.0
same,Rancidity Score,[2]; 2 weeks,2.0
same,Rancidity Score,[2]; 6 weeks,3.5
same,Rancidity Score,[2]; 10 weeks,5.0
polyoxyethylene sorbitan monastearate [Tween 60],Initial rate of cellulose degradation,rumen cellulase activity,0.87b (0.28) μg/ml/hr
same,Initial rate of proteinase activation,[3]; control=0,98.04%
same,"Km (additive conc.), proteinase activation",[3]; [5],0.28 ± 0.02a %
same,Vmax (maximum proteinase activation),[3]; [5],99.2 ± 2.7a %/unit additive conc.
same,HLB (hydrophile-lipophile balance),[4],14.9

# Source: patent US20040076659A1, “Additive for livestock feeds” (priority 1994, published 2004)
